According to patent publication US11365196B2, “FGFR inhibitor and application thereof” (Betta Pharmaceuticals Co., Ltd., priority 2017, dated 2022):

Columns and labels:
[1] = system: NCI-H1581 (human non-small cell lung cancer cells); assay: Cell proliferation assay, CellTiter Glo (Table 9); format: cell-based; conditions: Homo sapiens, NCI-H1581, 96 hrs
Description: (§4) Test method: 100 μl of the cell suspension was added to a 96-well plate and placed in a CO2 incubator overnight. Test compounds were dissolved in DMSO and subjected to a 3-fold gradient dilution for a total of 10 concentrations. The test compound or DMSO was transferred to the corresponding cell wells respectively and was incubated for 96 hrs in 5% CO2 at 37° C. 100 μl of CellTiter-Glo reagent was added to the assay plate and incubated for 10 min at room temperature to stabilize the luminescence signal. The IC50 value was calculated by recording the RLU (relative luminescence unit) using Enspire.

[2] = system: NCI-H716 (human colorectal cancer cell); assay: Cell proliferation assay, CellTiter Glo (Table 9); format: cell-based; conditions: Homo sapiens, NCI-H716, 96 hrs
Description: as §4

[3] = system: RT4 (human bladder cancer cell); assay: Cell proliferation assay, CellTiter Glo (Table 9); format: cell-based; conditions: Homo sapiens, 96 hrs
Description: as §4

[4] = system: MDA-MB-453 (human breast cancer cell); assay: Cell proliferation assay, CellTiter Glo (Table 9); format: cell-based; conditions: Homo sapiens, MDA-MB-453, 96 hrs
Description: as §4

[5] = system: JHH-7 (human hepatoma cell); assay: Cell proliferation assay, CellTiter Glo (Table 9); format: cell-based; conditions: Homo sapiens, JHH7, 96 hrs
Description: as §4

[6] = system: RT-112 (human bladder cancer cell); assay: Cell proliferation assay, CellTiter Glo (Table 9); format: cell-based; conditions: Homo sapiens, RT-112, 96 hrs
Description: as §4

[7] = system: cell lines with abnormal changes in FGFR signaling pathway; assay: cells; conditions: Homo sapiens, read-out: IC50 value
Description: Test method: 100 μl of the cell suspension was added to a 96-well plate and placed in a CO2 incubator overnight. […] The test compound or DMSO was transferred to the corresponding cell wells respectively and was incubated for 96 hrs in 5% CO2 at 37° C. 100 μl of CellTiter-Glo reagent was added to the assay plate and incubated for 10 min at room temperature to stabilize the luminescence signal. The IC50 value was calculated by recording the RLU (relative luminescence unit) using Enspire.

[8] = system: DMS 114 (human lung cancer cell); assay: Cell proliferation assay, CellTiter Glo (Table 9); format: cell-based; conditions: Homo sapiens, DMS-114, 96 hrs
Description: as §4

[9] = system: SNU-16 (human gastric cancer cell); assay: Cell proliferation assay, CellTiter Glo (Table 9); format: cell-based; conditions: Homo sapiens, SNU-16, 96 hrs
Description: as §4

[10] = system: OPM-2 (human myeloma cell); assay: Cell proliferation assay, CellTiter Glo (Table 9); format: cell-based; conditions: Homo sapiens, OPM-2, 96 hrs
Description: as §4

[11] = system: MFE-296 (human endometrial cancer cells); assay: Cell proliferation assay, CellTiter Glo (Table 9); format: cell-based; conditions: Homo sapiens, MFE-296, 96 hrs, WIFE-296 [sic]
Description: as §4

NCI-H1581 cells = assay: Cell proliferation assay on NCI-H1581 (Table 7); format: cell-based, human; conditions: Homo sapiens, NCI-H1581, read-out: IC50(nM) value of compounds on NCI-H1581 cells
Description: Test method: adding the appropriate volume of whole medium and the cells was suspended.

FGFR4 [12] = biological target: T1, FGFR4 (Homo sapiens (Human), UniProt P22455); assay: Kinase assay Method 1, mobility shift assay; format: biochemical; conditions: ATP at Km, numeric values, read-out: IC50(nM) value of compounds FGFR4
T1 sequence (P22455 22-802): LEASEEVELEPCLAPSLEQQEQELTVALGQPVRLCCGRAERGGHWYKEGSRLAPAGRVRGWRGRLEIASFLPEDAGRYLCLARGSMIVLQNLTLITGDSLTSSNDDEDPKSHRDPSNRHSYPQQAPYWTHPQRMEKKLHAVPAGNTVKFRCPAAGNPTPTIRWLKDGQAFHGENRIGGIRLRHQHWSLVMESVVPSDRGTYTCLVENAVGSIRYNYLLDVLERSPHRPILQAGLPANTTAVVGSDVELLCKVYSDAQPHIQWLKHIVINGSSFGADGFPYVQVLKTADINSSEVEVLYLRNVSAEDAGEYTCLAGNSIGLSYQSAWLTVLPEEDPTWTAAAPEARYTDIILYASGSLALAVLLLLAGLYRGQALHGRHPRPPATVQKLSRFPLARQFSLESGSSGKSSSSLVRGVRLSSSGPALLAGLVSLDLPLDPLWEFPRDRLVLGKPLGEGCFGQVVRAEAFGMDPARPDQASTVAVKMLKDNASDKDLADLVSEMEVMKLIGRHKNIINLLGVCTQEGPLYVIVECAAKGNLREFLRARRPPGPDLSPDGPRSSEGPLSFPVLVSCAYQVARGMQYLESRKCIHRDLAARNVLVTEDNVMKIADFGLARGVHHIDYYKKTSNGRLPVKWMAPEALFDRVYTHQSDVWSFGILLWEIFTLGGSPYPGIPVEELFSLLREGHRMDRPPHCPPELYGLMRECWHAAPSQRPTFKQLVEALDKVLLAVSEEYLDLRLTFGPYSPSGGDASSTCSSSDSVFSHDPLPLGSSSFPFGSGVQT

FGFR4 [13] = biological target: T1, FGFR4; assay: Kinase assay Method 2, isotope-labeled 33P-ATP method; format: biochemical; conditions: ATP at Km, filter-binding, read-out: IC50(nM) value of compounds, FGFR4
Description: (§1) Reagent: basic kinase buffer: 20 mM Hepes (pH 7.5), 10 mM MgCl2, 1 mM EGTA, 0.02% Brij35, 0.02 mg/mL BSA, 0.1 mM Na3VO4, 2 mM DTT, 1% DMSO
(§2) Adding the corresponding coenzyme factor to each kinase reaction
(§3) Reaction process: 1) formulating the substrate in freshly configured reaction buffer • 2) adding the required coenzyme factor to the above substrate solution • 3) adding kinase to the substrate solution and mixing gently • 4) adding the compounds dissolved in 100% DMSO to the above kinase reaction mixture, mixed well and incubating for 20 min at room temperature • 5) adding ^33P-ATP (specific activity 10 μCi/μL) to the reaction mixture to initiate the reaction and incubating for 2 h at room temperature • 6) detection of kinase activity by filter-binding The experiment data is shown in table 6: […]

FGFR2 = FGFR2 (Homo sapiens (Human), UniProt P21802); assay: as above; format: biochemical; conditions: ATP at Km, filter-binding, read-out: IC50(nM) value of compounds, FGFR2
Chain of FGFR2 (P21802 22-821): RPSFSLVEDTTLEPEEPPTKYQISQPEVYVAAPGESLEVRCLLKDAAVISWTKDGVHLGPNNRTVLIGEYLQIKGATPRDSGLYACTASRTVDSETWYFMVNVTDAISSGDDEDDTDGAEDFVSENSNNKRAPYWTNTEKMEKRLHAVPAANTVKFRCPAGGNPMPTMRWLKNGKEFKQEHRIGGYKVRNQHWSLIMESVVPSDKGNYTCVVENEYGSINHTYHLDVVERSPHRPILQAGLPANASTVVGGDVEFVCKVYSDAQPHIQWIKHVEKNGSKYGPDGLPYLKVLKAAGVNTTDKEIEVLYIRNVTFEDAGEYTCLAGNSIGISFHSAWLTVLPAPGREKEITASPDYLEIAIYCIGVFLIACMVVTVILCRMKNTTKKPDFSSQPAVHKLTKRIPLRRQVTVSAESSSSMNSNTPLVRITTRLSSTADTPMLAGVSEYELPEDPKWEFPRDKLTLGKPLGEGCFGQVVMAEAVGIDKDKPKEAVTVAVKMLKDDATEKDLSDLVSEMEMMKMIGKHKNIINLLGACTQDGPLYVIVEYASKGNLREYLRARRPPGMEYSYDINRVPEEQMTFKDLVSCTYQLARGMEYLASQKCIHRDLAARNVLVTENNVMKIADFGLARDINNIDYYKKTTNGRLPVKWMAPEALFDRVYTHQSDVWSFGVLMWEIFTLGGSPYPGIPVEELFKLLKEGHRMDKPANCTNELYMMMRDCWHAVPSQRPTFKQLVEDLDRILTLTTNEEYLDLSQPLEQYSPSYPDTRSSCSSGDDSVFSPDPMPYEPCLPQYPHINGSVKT
Description: as §1, §2, §3

FGFR3 = FGFR3 (Homo sapiens (Human), UniProt P22607); assay: as above; format: biochemical; conditions: ATP at Km, filter-binding, read-out: IC50(nM) value of compounds, FGFR3
Chain of FGFR3 (P22607 23-806): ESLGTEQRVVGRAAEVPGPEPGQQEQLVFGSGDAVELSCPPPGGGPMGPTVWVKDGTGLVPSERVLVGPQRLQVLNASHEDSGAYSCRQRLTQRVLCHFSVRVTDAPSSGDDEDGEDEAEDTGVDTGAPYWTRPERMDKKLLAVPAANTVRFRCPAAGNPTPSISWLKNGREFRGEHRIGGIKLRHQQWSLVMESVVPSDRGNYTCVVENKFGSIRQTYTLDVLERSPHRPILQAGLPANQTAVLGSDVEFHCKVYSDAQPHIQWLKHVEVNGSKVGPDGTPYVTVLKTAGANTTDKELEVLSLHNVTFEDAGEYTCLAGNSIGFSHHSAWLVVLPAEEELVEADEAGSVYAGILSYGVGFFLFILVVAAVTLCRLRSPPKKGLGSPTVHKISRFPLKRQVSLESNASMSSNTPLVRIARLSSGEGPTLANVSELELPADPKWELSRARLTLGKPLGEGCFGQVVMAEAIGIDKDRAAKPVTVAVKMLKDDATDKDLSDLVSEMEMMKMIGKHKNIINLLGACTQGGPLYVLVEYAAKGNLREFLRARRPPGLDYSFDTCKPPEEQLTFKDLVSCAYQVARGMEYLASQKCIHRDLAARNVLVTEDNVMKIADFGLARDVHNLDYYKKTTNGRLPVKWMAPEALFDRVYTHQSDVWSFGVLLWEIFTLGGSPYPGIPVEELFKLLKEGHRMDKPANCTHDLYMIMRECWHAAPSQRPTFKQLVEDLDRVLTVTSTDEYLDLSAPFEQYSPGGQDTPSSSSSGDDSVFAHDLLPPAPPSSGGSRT
Description: as §1, §2, §3

Question: Which IC50 [1] does the source give for `CCN1CCN(c2ccc(Nc3ncc4cc(-c5cc(OC)cc(OC)c5Cl)c5nncn5c4n3)cc2)CC1` [Compound 4, 6-(2-chloro-3,5-dimethoxyphenyl)-N-(4-(4-ethylpiperazin-1-yl)phenyl)-[1,2,4]triazolo[4′,3′:1,6]pyrido[2,3-d]pyrimidin-2-amine] here?
Answer: Its IC50 is 1.2 nM.

Question: What about the IC50 [2] of the same compound?
Answer: Its IC50 is 0.5 nM.

Question: And the IC50 [3]?
Answer: Its IC50 is 1.9 nM.

Question: What about the IC50 [4] of the same compound?
Answer: Its IC50 is 61.3 nM.

Question: And the IC50 [5]?
Answer: Its IC50 is 6.6 nM.

Question: And the IC50 [6]?
Answer: The IC50 was 1 nM.

Question: What about the IC50 [7] of the same compound?
Answer: The IC50 was 0.5 to 2.7 nM.

Question: And the IC50 [8]?
Answer: Its IC50 is 7.4 nM.

Question: What about the IC50 [9] of the same compound?
Answer: Its IC50 is 1.1 nM.

Question: What about the IC50 [10] of the same compound?
Answer: Its IC50 is 4 nM.

Question: What about the IC50 [11] of the same compound?
Answer: Its IC50 is 2.7 nM.

Question: And the IC50 (NCI-H1581 cells)?
Answer: Its IC50 is 0.4 nM.

Question: And the IC50 (FGFR4 [12])?
Answer: The IC50 was 27 nM.

Question: What about the IC50 (FGFR4 [13]) of the same compound?
Answer: Its IC50 is 5.06 nM.

Question: What about the IC50 (FGFR2) of the same compound?
Answer: The IC50 was 0.16 nM.

Question: What about the IC50 (FGFR3) of the same compound?
Answer: The IC50 was 1.34 nM.
